The values that follow come from ChEMBL document CHEMBL4152336, “Optimization of the first small-molecule relaxin/insulin-like family peptide receptor (RXFP1) agonists: Activation results in an antifibrotic gene expression profile” (Eur J Med Chem, 2018).

Series [1] deals with Mus musculus. Nature of the series: Toxicity in C57/BL6 mouse assessed as mouse death at 90 to 3000 mg/kg, po treated for 5 days measured at day 5 post last dose. Format: organism-based. As to conditions: in vivo, 120 h.
Series [2] is described as follows: Drug level in C57/BL6 mouse heart at 30 mg/kg, po after 7 hrs. Format: ADME, organism-based. As to conditions: in vivo.
The test system of series [3] is Mus musculus. Nature of the series: Toxicity in C57/BL6 mouse assessed as body weight at 90 mg/kg, po treated for 5 days measured at day 7 post last dose (reference value: 20.6 +/- 2.9 g). Format: organism-based. Conditions: in vivo, 120 h.
Series [4] deals with Mus musculus. Put plainly: Toxicity in C57/BL6 mouse assessed as body weight at 90 mg/kg, po treated for 5 days measured at day 6 post last dose (reference value: 20.6 +/- 2.6 g). Format: organism-based. Conditions: in vivo, 120 h.
The test system of series [5] is Mus musculus. Nature of the series: Toxicity in C57/BL6 mouse assessed as body weight at 3000 mg/kg, po treated for 5 days measured at day 10 post last dose (reference value: 20.7 +/- 2.6 g). Format: organism-based. As to conditions: in vivo, 120 h.
Series [6] can be described thus: Drug level in C57/BL6 mouse heart at 30 mg/kg, po after 1.5 hr. Format: ADME, organism-based. Conditions: in vivo.
Series [7] relates to Mus musculus. Nature of the series: Toxicity in C57/BL6 mouse assessed as body weight at 300 mg/kg, po treated for 5 days measured at day 6 post last dose (reference value: 20.6 +/- 2.6 g). Format: organism-based. As to conditions: in vivo, 120 h.
Series [8] has as its system Mus musculus. Nature of the series: Toxicity in C57/BL6 mouse assessed as body weight at 300 mg/kg, po treated for 5 days measured at day 4 post last dose (reference value: 20.1 +/- 2.8 g). Format: organism-based. Conditions: in vivo, 120 h.
Series [9] has as its system Mus musculus. Nature of the series: Toxicity in C57/BL6 mouse assessed as body weight at 90 mg/kg, po treated for 5 days measured at day 3 post last dose (reference value: 19.8 +/- 2.5 g). Format: organism-based. As to conditions: in vivo, 120 h.
Series [10] has as its system Mus musculus. Nature of the series: Toxicity in C57/BL6 mouse assessed as body weight at 300 mg/kg, po treated for 5 days measured at day 9 post last dose (reference value: 20.7 +/- 2.9 g). Format: organism-based. Conditions: in vivo, 120 h.
Series [11] is described as follows: Drug level in C57/BL6 mouse heart at 3 mg/kg, iv after 24 hrs. Format: ADME, organism-based. Conditions: in vivo.
The subject of series [12] is Mus musculus. Nature of the series: Toxicity in C57/BL6 mouse assessed as body weight at 3000 mg/kg, po treated for 5 days measured at day 6 post last dose (reference value: 20.6 +/- 2.6 g). Format: organism-based. Conditions: in vivo, 120 h.
Series [13] in a line: Drug level in C57/BL6 mouse heart at 30 mg/kg, po after 2 hrs. Format: ADME, organism-based. Conditions: in vivo.
Series [14] relates to Mus musculus. Nature of the series: Toxicity in C57/BL6 mouse assessed as body weight at 90 mg/kg, po treated for 5 days measured at day 2 post last dose (reference value: 19.8 +/- 2.3 g). Format: organism-based. Conditions: in vivo, 120 h.
A short description of series [15]: Drug level in C57/BL6 mouse heart at 30 mg/kg, po after 24 hrs. Format: ADME, organism-based. As to conditions: in vivo, BLD = below limit of detection.
Series [16] relates to Mus musculus. Nature of the series: Toxicity in C57/BL6 mouse assessed as body weight at 90 mg/kg, po treated for 5 days measured at day 8 post last dose (reference value: 20.6 +/- 2.8 g). Format: organism-based. Conditions: in vivo, 120 h.
The species named for series [17] is Homo sapiens. Nature of the series: Upregulation of PPARGC1A gene expression in human HSC at 5 uM after 24 to 72 hrs by RT-qPCR analysis. Format: functional. On the technique in general: Real-time PCR tracks product formation cycle by cycle.

Molecules are shown by their SMILES. Activity calls are given as the source filed them. The calls are words filed in the database; no cut-off is given here.

`CC(C)Oc1ccccc1C(=O)Nc1ccccc1C(=O)Nc1cccc(S(=O)(=O)C(F)(F)F)c1`: the Activity entry is on record as “Non-Toxic” in [1]; 20.4 g in [3]; 20.4 g in series [4]; 21.3 g in series [5]; 20.8 g in series [7]; 20.4 g in series [8]. Further, the Activity was determined as 19.9 g in series [9]; 21 g in [10]; 21.1 g in [12]; 19.9 g in series [14]; 20.6 g in [16]. For the same molecule, the Drug uptake is 0.067 µmol/kg in series [2]; 2.026 µmol/kg in series [6]; 0.109 µmol/kg in [11]; 1.016 µmol/kg in series [13]; “Bld” in series [15]. For the same molecule, the outcome in series [17] was Active.
